The source of these data is patent US9833497B2, “Human originated EGF domain proteins and use of the same” (CHENGDU SOURCEBIO LIMITED-LIABILITY COMPANY, priority 2013, dated 2017).

What all share (assay type): cell-based
One experiment relates to E. coli DH5α. The experiment in a line: Antibacterial activity: MIC and growth curve against E. coli DH5α in 96-well plate. Conditions: minimal inhibitory concentration against E. coli DH5α; 96-well plate, 5×10^5 CFU/mL, 37° C., judged after 8 h. Summed up:
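MIC taken as lowest protein level with no bacterial growth, tracked by A600 every 30 min during 37 °C, 175 rpm culture. Two-fold protein series 50-12.5 μg/mL final, triplicate wells, against 5×10^5 CFU/mL of LB-washed mid-log cells.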

The next experiment relates to E. coli BL21. Kind of experiment: MIC against Gram-negative bacteria: E. coli BL21. Particulars: 5×10^5 CFU/mL. Summed up:
(§1)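 Bacteria grown in LB at 37° C with shaking to McFarland 0.5, pelleted and resuspended in fresh LB, then seeded at 5×10^5 CFU/mL per well. Purified recombinant human EGF domain proteins were two-fold serially diluted in triplicate and plates shaken at 37° C, 175 rpm. MIC is the lowest protein concentration with no bacterial growth.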

Another experiment has as its system Pseudomonas aeruginosa. Kind of experiment: MIC against Gram-negative bacteria: Pseudomonas aeruginosa. Conditions: 5×10^5 CFU/mL. Summed up: as §1
Another experiment deals with Klebsiella pneumonia. Kind of experiment: MIC against Gram-negative bacteria: Klebsiella pneumonia. Particulars: 5×10^5 CFU/mL. A digest of the protocol: as §1
Another experiment relates to Enterobacter cloacae. Kind of experiment: MIC against Gram-negative bacteria: Enterobacter cloacae. Conditions: 5×10^5 CFU/mL. A digest of the protocol: as §1
In another experiment the test system is Aeromonas hydrophila. Kind of experiment: MIC against Gram-negative bacteria: Aeromonas hydrophila. Conditions: 5×10^5 CFU/mL. Summed up:
as §1

A further experiment relates to Citrobacter diversus. Kind of experiment: MIC against Gram-negative bacteria: Citrobacter diversus. Conditions: 5×10^5 CFU/mL. Summed up: as §1
The test system of a further experiment is Moraxella catarrhalis. Kind of experiment: MIC against Gram-negative bacteria: Moraxella catarrhalis. Particulars: 5×10^5 CFU/mL. A digest of the protocol: as §1
In the next experiment the test system is Proteus mirabilis. The experiment in a line: MIC against Gram-negative bacteria: Proteus mirabilis. Conditions: 5×10^5 CFU/mL. A digest of the protocol:
as §1

The next experiment relates to Proteus vulgaris. Kind of experiment: MIC against Gram-negative bacteria: Proteus vulgaris. Particulars: 5×10^5 CFU/mL. Summed up:
as §1

In a further experiment the test system is Serratia marcescens. The experiment in a line: MIC against Gram-negative bacteria: Serratia marcescens. Conditions: 5×10^5 CFU/mL. Summed up:
as §1

The mark [1] stands for this setting: 10 h cultivation at 37° C., two-fold serial dilution.

One may read the MIC as the lowest concentration that inhibits growth of the organism. Higher therefore signals weaker potency.

Turning to “PRT1149 (APSVCQQDVCHNGGTCHAIFLSSGIVSFQCDCPLHFTGRFCE; listed as Homo sapiens)”, in the experiment with E. coli DH5α, the MIC is 25 µg/mL. For the same substance, the “MIC E. coli BL21” value in the experiment on E. coli BL21 (setting [1]) was found to be 25 µg/mL. In addition, the “MIC P. aeruginosa” value with Pseudomonas aeruginosa (setting [1]) turned out to be 50 µg/mL. Also, the “MIC K. pneumonia” value in the experiment with Klebsiella pneumonia (setting [1]) worked out at 25 µg/mL. In addition, the “MIC E. cloacae” value in the experiment with Enterobacter cloacae (setting [1]) came out at 12.5 µg/mL. Moreover, the “MIC A. hydrophila” value against Aeromonas hydrophila (setting [1]) worked out at 50 µg/mL. For the same substance, the “MIC C. diversus” value with Citrobacter diversus (setting [1]) came to 12.5 µg/mL. The “MIC M. catarrhalis” value in the experiment on Moraxella catarrhalis (setting [1]) worked out at 50 µg/mL. Besides, the “MIC P. mirabilis” value in the experiment on Proteus mirabilis (setting [1]) was determined as 12.5 µg/mL. Further, the “MIC P. vulgaris” value in the experiment on Proteus vulgaris (setting [1]) was 25 µg/mL. Further, the “MIC S. marcescens” value against Serratia marcescens (setting [1]) is 50 µg/mL.
“PRT758 (RVDHCAQQDHGCEQLCLNTEDSFVCQCSEGFLINEDLKTCS; listed as Homo sapiens)” displayed a minimal inhibitory concentration (MIC) against E. coli DH5α of 12.5 µg/mL. For the same substance, in the experiment on E. coli BL21 (E. coli BL21, 10 h cultivation at 37° C.), the “MIC (μg/mL) E. coli BL21” value is 25 µg/mL. Moreover, in the experiment with Pseudomonas aeruginosa (P. aeruginosa, 10 h cultivation at 37° C.), the “MIC (μg/mL) P. aeruginosa” value worked out at 50 µg/mL. Besides, the “MIC (μg/mL) K. pneumonia” value against Klebsiella pneumonia (K. pneumonia, 10 h cultivation at 37° C.) came to 50 µg/mL. Besides, the “MIC (μg/mL) E. cloacae” value in the experiment with Enterobacter cloacae (E. cloacae, 10 h cultivation at 37° C.) is 25 µg/mL. Further, in the experiment with Aeromonas hydrophila (A. hydrophila, 10 h cultivation at 37° C.), the “MIC (μg/mL) A. hydrophila” value was 50 µg/mL. Also, the “MIC (μg/mL) C. diversus” value in the experiment on Citrobacter diversus (C. diversus, 10 h cultivation at 37° C.) was determined as 25 µg/mL. Besides, the “MIC (μg/mL) M. catarrhalis” value against Moraxella catarrhalis (M. catarrhalis, 10 h cultivation at 37° C.) was found to be 12.5 µg/mL. Also, the “MIC (μg/mL) P. mirabilis” value in the experiment on Proteus mirabilis (P. mirabilis, 10 h cultivation at 37° C.) was 25 µg/mL. For the same substance, in the experiment on Proteus vulgaris (P. vulgaris, 10 h cultivation at 37° C.), the “MIC (μg/mL) P. vulgaris” value came to 12.5 µg/mL. In the experiment with Serratia marcescens (S. marcescens, 10 h cultivation at 37° C.), the “MIC (μg/mL) S. marcescens” value was determined as 12.5 µg/mL.
Substance “PRT552 (CACGPAAEGSECHPQSGQCHCRPGTMGPQCRECAPGYWGLPEQGCRR; listed as Homo sapiens)” returned an MIC against E. coli DH5α of 25 µg/mL. In addition, the “MIC against E. coli BL21” value in the experiment with E. coli BL21 (96-well plate, 37° C., 10 h) worked out at 100 µg/mL. For the same substance, the “MIC against P. aeruginosa” value in the experiment on Pseudomonas aeruginosa (96-well plate, 37° C., 10 h) was 50 µg/mL. Further, the “MIC against K. pneumonia” value against Klebsiella pneumonia (96-well plate, 37° C., 10 h) was 12.5 µg/mL. Further, the “MIC against E. cloacae” value against Enterobacter cloacae (96-well plate, 37° C., 10 h) was 50 µg/mL. Also, in the experiment with Aeromonas hydrophila (96-well plate, 37° C., 10 h), the “MIC against A. hydrophila” value was found to be 12.5 µg/mL. The “MIC against C. diversus” value in the experiment on Citrobacter diversus (96-well plate, 37° C., 10 h) turned out to be 50 µg/mL. For the same substance, the “MIC against M. catarrhalis” value in the experiment with Moraxella catarrhalis (96-well plate, 37° C., 10 h) worked out at 25 µg/mL. The “MIC against P. mirabilis” value in the experiment on Proteus mirabilis (96-well plate, 37° C., 10 h) came to 12.5 µg/mL. Further, in the experiment on Proteus vulgaris (96-well plate, 37° C., 10 h), the “MIC against P. vulgaris” value is 25 µg/mL. The “MIC against S. marcescens” value with Serratia marcescens (96-well plate, 37° C., 10 h) is 12.5 µg/mL.
Consider “PRT1278 (DIDECRLNNGGCDHICRNTVGSFECSCKKGYKLLINERNCQ; listed as Homo sapiens)”, for which, in the experiment on E. coli DH5α, the MIC stood at 25 µg/mL. Besides, in the experiment with E. coli BL21 (E. coli BL21, 96-well plate, 37° C., 10 h), the “MIC against E. coli BL21” value was 12.5 µg/mL. In the experiment with Pseudomonas aeruginosa (Pseudomonas aeruginosa, 96-well plate, 37° C., 10 h), the “MIC against P. aeruginosa” value came out at 12.5 µg/mL. For the same substance, in the experiment with Klebsiella pneumonia (Klebsiella pneumonia, 96-well plate, 37° C., 10 h), the “MIC against K. pneumonia” value was found to be 12.5 µg/mL. Besides, in the experiment on Enterobacter cloacae (Enterobacter cloacae, 96-well plate, 37° C., 10 h), the “MIC against E. cloacae” value was 12.5 µg/mL. Besides, the “MIC against A. hydrophila” value with Aeromonas hydrophila (Aeromonas hydrophila, 96-well plate, 37° C., 10 h) stood at 12.5 µg/mL. The “MIC against C. diversus” value with Citrobacter diversus (Citrobacter diversus, 96-well plate, 37° C., 10 h) came to 12.5 µg/mL. Moreover, the “MIC against M. catarrhalis” value against Moraxella catarrhalis (Moraxella catarrhalis, 96-well plate, 37° C., 10 h) is 12.5 µg/mL. Besides, the “MIC against P. mirabilis” value with Proteus mirabilis (Proteus mirabilis, 96-well plate, 37° C., 10 h) is 12.5 µg/mL. The “MIC against P. vulgaris” value against Proteus vulgaris (Proteus vulgaris, 96-well plate, 37° C., 10 h) is 12.5 µg/mL. In addition, in the experiment with Serratia marcescens (Serratia marcescens, 96-well plate, 37° C., 10 h), the “MIC against S. marcescens” value worked out at 12.5 µg/mL.
On to “PRT724 (DINECEQFGTCPQHCRNTKGSYECVCADGFTSMSDRPGKRCA; listed as Homo sapiens)”, for which the MIC against E. coli DH5α was found to be 12.5 µg/mL. Moreover, the “MIC E. coli BL21” value in the experiment with E. coli BL21 (96-well plate, 37° C., 10 h) turned out to be 12.5 µg/mL. Besides, in the experiment on Pseudomonas aeruginosa (96-well plate, 37° C., 10 h), the “MIC P. aeruginosa” value was 12.5 µg/mL. The “MIC K. pneumonia” value in the experiment with Klebsiella pneumonia (96-well plate, 37° C., 10 h) came to 12.5 µg/mL. In addition, the “MIC E. cloacae” value with Enterobacter cloacae (96-well plate, 37° C., 10 h) was 25 µg/mL. Also, the “MIC A. hydrophila” value in the experiment on Aeromonas hydrophila (96-well plate, 37° C., 10 h) was determined as 12.5 µg/mL. Also, the “MIC C. diversus” value against Citrobacter diversus (96-well plate, 37° C., 10 h) was 25 µg/mL. The “MIC M. catarrhalis” value against Moraxella catarrhalis (96-well plate, 37° C., 10 h) was found to be 12.5 µg/mL. The “MIC P. mirabilis” value in the experiment on Proteus mirabilis (96-well plate, 37° C., 10 h) is 25 µg/mL. Further, the “MIC P. vulgaris” value against Proteus vulgaris (96-well plate, 37° C., 10 h) was 12.5 µg/mL. In addition, the “MIC S. marcescens” value with Serratia marcescens (96-well plate, 37° C., 10 h) was found to be 25 µg/mL.
